Target: Bcl-2-like protein 1 (Bcl-XL) (Homo sapiens) (UniProt Q07817)
Assay: Displacement of fluorescein labeled BAD peptide from Bcl-XL by fluorescence polarization assay

Bcl-2-like protein 1 (Bcl-XL) (Homo sapiens), sequence (Q07817 whole entry, looked up): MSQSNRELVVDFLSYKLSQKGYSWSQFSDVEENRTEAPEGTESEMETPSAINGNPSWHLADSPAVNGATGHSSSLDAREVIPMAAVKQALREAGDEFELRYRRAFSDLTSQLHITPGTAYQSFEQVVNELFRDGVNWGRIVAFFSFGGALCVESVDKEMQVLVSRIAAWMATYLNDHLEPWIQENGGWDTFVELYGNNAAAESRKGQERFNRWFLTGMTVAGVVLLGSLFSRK

| SMILES | Ki [nM] |
| --- | --- |
| CN(C)CC[C@H](CSc1ccccc1)Nc1ccc(S(=O)(=O)NC(=O)c2ccc(N3CCN(CC4=C(c5ccc(Cl)cc5)CCC(C)(C)C4)CC3)cc2)cc1[N+](=O)[O-] [(R)-4-(4-((2-(4-Chlorophenyl)-5,5-dimethylcyclohex-1-enyl)methyl)piperazin-1-yl)-N-(4-(4-(dimethylamino)-1-(phenylthio)butan-2-ylamino)-3-nitrophenylsulfonyl)benzamide] | 1.4 |
| CN(C)CC[C@H](CSc1ccccc1)Nc1ccc(S(=O)(=O)NC(=O)c2ccc(N3CCN(Cc4ccccc4-c4ccc(Cl)cc4)CC3)cc2)cc1 [(R)-4-(4-((4'-Chlorobiphenyl-2-yl)methyl)piperazin-1-yl)-N-(4-(4-(dimethylamino)-1-(phenylthio)butan-2-ylamino)phenylsulfonyl)benzamide] | 14 |
